Data: US20080214808A1, “Preparation of Aseptic 3-[2-[4-((6-Fluoro-1,2-Benzisoxazol-3-Yl)-1-Piperidinyl]-6,7,8,9-Tetrahydro-9-Hydroxy-2-Methyl-4H-Pyrido[1,2-a]Pyrimidin-4-One Palmitate Ester” (priority 2005, published 2008)

Experiment: Gamma irradiation of compound (I) in different containers, amounts of (I) and breakdown products by HPLC
Type: physicochemical
From the text: During pharmaceutical development, aseptic formulations of paliperidone palmitate (I) were initially obtained by gamma irradiation.
Compound (I) was irradiated with various doses of gamma rays in different containers.

[1] = Glass container, gamma dose 5 kGY
[2] = Glass container, gamma dose 10 kGY
[3] = Glass container, gamma dose 15 kGY
[4] = Glass container, gamma dose 20 kGY
[5] = Glass container, gamma dose 25 kGY
[6] = Glass container, gamma dose 30 kGY
[7] = Glass/metal container, gamma dose 5 kGY
[8] = Glass/metal container, gamma dose 10 kGY
[9] = Glass/metal container, gamma dose 15 kGY
[10] = Glass/metal container, gamma dose 20 kGY
[11] = Glass/metal container, gamma dose 25 kGY
[12] = Glass/metal container, gamma dose 30 kGY
[13] = Plastic container, gamma dose 15 kGY
[14] = Plastic container, gamma dose 20 kGY
[15] = Plastic container, gamma dose 25 kGY
[16] = gamma irradiation, maximum found

amount of (I) [1]: 98.8% | amount of breakdown product (III) [1]: 0.08% | amount of breakdown products (II) [sum of (II-a) and (II-b)] [1]: 0.02% | amount of (I) [2]: 98.7% | amount of breakdown product (III) [2]: 0.15% | amount of breakdown products (II) [sum of (II-a) and (II-b)] [2]: 0.05% | amount of (I) [3]: 98.5% | amount of breakdown product (III) [3]: 0.23% | amount of breakdown products (II) [sum of (II-a) and (II-b)] [3]: 0.11% | amount of (I) [4]: 98.3% | amount of breakdown product (III) [4]: 0.34% | amount of breakdown products (II) [sum of (II-a) and (II-b)] [4]: 0.17% | amount of (I) [5]: 98.2% | amount of breakdown product (III) [5]: 0.36% | amount of breakdown products (II) [sum of (II-a) and (II-b)] [5]: 0.18% | amount of (I) [6]: 98% | amount of breakdown product (III) [6]: 0.46% | amount of breakdown products (II) [sum of (II-a) and (II-b)] [6]: 0.24% | amount of (I) [7]: 98.8% | amount of breakdown product (III) [7]: 0.08% | amount of breakdown products (II) [sum of (II-a) and (II-b)] [7]: 0.02% | amount of (I) [8]: 98.9% | amount of breakdown product (III) [8]: 0.1% | amount of (I) [9]: 98.5% | amount of breakdown product (III) [9]: 0.23% | amount of breakdown products (II) [sum of (II-a) and (II-b)] [9]: 0.11% | amount of (I) [10]: 98.4% | amount of breakdown product (III) [10]: 0.29% | amount of breakdown products (II) [sum of (II-a) and (II-b)] [10]: 0.15% | amount of (I) [11]: 97.2% | amount of breakdown product (III) [11]: 0.35% | amount of breakdown products (II) [sum of (II-a) and (II-b)] [11]: 0.05% | amount of (I) [12]: 98.2% | amount of breakdown product (III) [12]: 0.45% | amount of breakdown products (II) [sum of (II-a) and (II-b)] [12]: 0.21% | amount of (I) [13]: 98.3% | amount of breakdown product (III) [13]: 0.23% | amount of breakdown products (II) [sum of (II-a) and (II-b)] [13]: 0.03% | amount of (I) [14]: 97.9% | amount of breakdown product (III) [14]: 0.29% | amount of breakdown products (II) [sum of (II-a) and (II-b)] [14]: 0.03% | amount of (I) [15]: 97.2% | amount of breakdown product (III) [15]: 0.35% | amount of breakdown products (II) [sum of (II-a) and (II-b)] [15]: 0.06% | breakdown product (III) formed [16]: up to 0.46% | breakdown products (II) [(II-a) and (II-b), co-eluting in HPLC] formed [16]: up to 0.24% | amount of the breakdown products (II) and (III) versus gamma dose (various doses of gamma rays, different containers): increased dose-dependently
Structure (SMILES): CCCCCCCCCCCCCCCC(=O)OC1CCCn2c1nc(C)c(CCN1CCC(c3noc4cc(F)ccc34)CC1)c2=O (centres unmarked) [(I), 3-[2-[4-(6-fluoro-1,2-benzisoxazol-3-yl)-1-piperidinyl]ethyl]-6,7,8,9-tetrahydro-9-hydroxy-2-methyl-4H-pyrido[1,2-a]pyrimidin-4-one palmitate ester]
